This note sets out measurements from the SangsterLogP compilation.

The structures appear in SMILES notation.

Data set [1] can be described thus: method code SF-ESR, from DOI: 10.1111/1523-1747.ep12319780, PMID: 2551971. Particulars: pH 7.0.
Data set [2] is described as follows: method code SF, from DOI: 10.1021/ac00105a018.
Data set [3] in a line: method code SF-AS, from DOI: 10.1016/s0378-5173(98)00405-0, PMID: 10089287. Particulars: pH 7.4.
Data set [4] in a line: method code SF-AS, from DOI: 10.1002/jhrc.1240040906. Particulars: pH 5.0.
Data set [5] can be described thus: method code SF-AS, from DOI: 10.1002/jps.2600711105. The following applies: pH 7.4.
Test in data set [6]: not given
This is another data set of the same source.

The nature of data set [7]: method code SF-AS, from DOI: 10.1016/0005-2744(69)90103-x, PMID: 4387594.
Data set [8] in a line: method code SF-AS, from DOI: 10.1016/0009-2797(77)90097-7, PMID: 407012. Particulars: pH 7.0.
Test in data set [9]: not given
This is another data set of the same source.

Data set [10] can be described thus: method code SF-HPLC, from DOI: 10.1111/j.2042-7158.1995.tb05807.x, PMID: 7791035. Particulars: pH 7.0.
A short description of data set [11]: method code SF-HPLC, from DOI: 10.1023/a:1007522626070, PMID: 10714611. Particulars: pH 7.4.
Data set [12] can be described thus: method code SF, from DOI: 10.1002/jbm.820150603, PMID: 7309762.
Data set [13] in a line: method code SF-AS, from DOI: 10.1021/jm00297a026, PMID: 5441130.
Test in data set [14]: not given
This is another data set of the same source.

Data set [15] in a line: method code SF-HPLC, from DOI: 10.1016/0378-5173(84)90193-5. Particulars: pH 4.0.
A short description of data set [16]: method code SF-RC, from DOI: 10.1002/jlcr.1525.
The nature of data set [17]: method code SF-AS, from DOI: 10.1016/s0006-2952(02)01074-2, PMID: 12392818. The following applies: pH 7.4.
A short description of data set [18]: method code SF-AS, from PMID: 6692390. Particulars: pH 4.0.
A short description of data set [19]: method code SF-AS, from DOI: 10.1248/cpb.36.1393. The following applies: pH 7.4.
Test in data set [20]: not given
The source holds these as a separate data set.

The nature of data set [21]: method code SF-GLC, from DOI: 10.1016/j.chemosphere.2004.08.061, PMID: 15519382.
The nature of data set [22]: method code SF-HPLC, from DOI: 10.1021/jm701549s, PMID: 18558667. The following applies: pH 7.4.
A short description of data set [23]: method code SF-AS, from DOI: 10.1248/cpb.39.1217.
Data set [24] can be described thus: method code SF-GLC, from PMID: 6629728. Particulars: pH 7.4.
A short description of data set [25]: method code SF, from DOI: 10.1023/a:1018952108327, PMID: 7855051. The following applies: pH 5.0.
Test in data set [26]: not given
This is another data set of the same source.

A short description of data set [27]: method code SF-AS, from DOI: 10.1271/bbb1961.46.2755.
Test in data set [28]: not given
This is another data set of the same source.

Data set [29] in a line: method code SF-HPLC, from DOI: 10.1248/bpb.16.154, PMID: 8364451.
Test in data set [30]: not given
This is another data set of the same source.

Data set [31] in a line: method code …, from Korenman, I.; Polumestnaya, I.; Mezentseva, P. (1979). Investigations of the relationship of extraction of 1-naphthol and some of its derivatives by the method of correlation equations. Zh. Prikl. …. Particulars: pH 2.0.
Test in data set [32]: not given
The source holds these as a separate data set.

Data set [33] is described as follows: method code SF, from DOI: 10.1021/jm00002a007, PMID: 7830268.
Data set [34] can be described thus: method code SF-HPLC, from DOI: 10.1002/ps.2780130506.
The nature of data set [35]: method code SF-AS, from Korenman, Y.; Pazynin, T. (1972). Distribution of nitrosonaphthols between organic solvents and water. J. anal. chem. USSR, 27(4)723-725. The following applies: pH 2.0.
Data set [36] can be described thus: method code SF, from DOI: 10.1246/bcsj.60.4357.
Data set [37] is described as follows: method code SF, from DOI: 10.1038/248065a0, PMID: 4150456. Particulars: pH 9.0.
Data set [38] can be described thus: method code SF-AS, from DOI: 10.1002/chin.198419165, PMID: 6653771. The following applies: pH 2.5.
Data set [39] in a line: method code SF-RC, from DOI: 10.1016/j.apradiso.2013.03.021, PMID: 23602704. The following applies: pH 7.4.
Data set [40] is described as follows: method code SF-RC, from Lázníček, M., Waisser, K., Květina, J., Beňo, P., & Tichý, M. (1985). QSAR methods in pharmacokinetic analysis. QSAR in Toxicology and Xenobiochemistry, 249-256. The following applies: pH 1.0.
The nature of data set [41]: method code SF, from DOI: 10.1002/jps.2600641111, PMID: 1195110. The following applies: pH 7.4.
A short description of data set [42]: method code SF-RC, from DOI: 10.1016/0006-2952(75)90159-8, PMID: 1168477.
Test in data set [43]: not given
The source holds these as a separate data set.

Data set [44] is described as follows: method code SF-AS, from DOI: 10.1016/0378-5173(82)90005-9. Particulars: pH 3.0.
The nature of data set [45]: method code SF-HPLC, from DOI: 10.1016/0378-5173(85)90011-0.

In general, logP refers to the decadic logarithm of the partition coefficient of the neutral form, usually between octanol and water. Lower therefore signals a more hydrophilic compound.

`CC1(C)CCC(C)(C)N1[O]`: the logD in data set [1] is 1.

In turn, `CCCc1ccc(O)cc1` had a logP in [2] of 3.

In turn, `Cc1cc(=O)n2ccccc2n1` registered a logD in [3] of 0.6.

Consider `O=c1[nH]c(-c2ccccc2)nc2nn[nH]c12`, for which the log partition coefficient (logP) came to 1.27.

Consider `NC(=O)c1cnc2n(c1=O)CCCC2`, for which, in data set [4], the logD was -0.38.

The compound `CC(=O)c1nc([N+](=O)[O-])n(CC(C)O)c1C` (stereo unspecified) had a logD in [5] of 0.37.

Compound `COC(=O)Nc1nc2ccccc2[nH]1` registered a logP in data set [6] of 1.75.

The compound `CCCNc1ccccc1` came in with a lipophilicity (logP) in [7] of 2.45.

In data set [8], `CN(C)c1nc(N(C)C)nc(N(C)O)n1` displayed a logD of 1.61.

Compound `O=NN(CCF)C(=O)NC1CCS(=O)(=O)CC1` came in with a logP in data set [9] of -0.41.

`NC(=O)NC(=O)Cc1ccccc1` registered a logD in data set [10] of 0.66.

`CCn1nnc(C2=CCC[N+](C)([O-])C2)n1` (stereo unspecified) came in with a logD in [11] of -1.5.

As for `C=C(C)C(=O)OCCCC`, the logP in [12] was 2.6.

In turn, `CCCCn1cnc2c(N)ncnc21` showed a logP in data set [13] of 1.25.

As to `Clc1ccc2ccccc2c1`, the logP in [14] was determined as 4.07.

In data set [15], `O=c1[nH]cc(F)c(=O)n1Oc1ccccc1` gave a logD of 0.8.

With `O=C(O)CN(CCN1CCN=C1[N+](=O)[O-])CC(=O)O`, the logP in [16] is -0.82.

In data set [17], `OC1CCOc2ccccc21` (stereo unspecified) gave a logD of 1.31.

Take `COc1ccc(NC(=O)N(C)N=O)cc1`: the logD in [18] amounted to 0.64.

With `[O-][n+]1ccc(Cl)c2ccc(Cl)cc21`, in data set [19], the logD turned out to be 1.85.

In data set [20], `Clc1ccc2ccc(Cl)cc2c1` returned a logP of 4.81.

`Cn1c(Cl)c(Br)c(Cl)c1-c1c(Br)c(Br)c(Cl)n1C` came in with a logP in [21] of 6.5.

In the case of `CN(C)C(=O)c1ccc(Br)cc1`, the logD in [22] is 1.83.

`Cc1nccnc1CC(C)C` returned a logP in data set [23] of 1.96.

With `C1CCC(C2CO2)CC1` (stereo unspecified), the logD in data set [24] was determined as 2.43.

As to `CN1C(CCl)Nc2cc(Cl)c(S(N)(=O)=O)cc2S1(=O)=O` (stereo unspecified), in [25], the logD was found to be 0.6.

For the compound `NC1CC1c1ccccc1` (stereo unspecified), the logP in data set [26] was determined as 1.49.

In [27], `O=C1COC(=O)N1c1ccccc1` registered a lipophilicity (logP) of 0.93.

Compound `Cn1c(C(F)(F)F)nc2ccccc21` returned a logP in [28] of 3.98.

On to `O=C(O)CNC(=O)c1cc(O)ccc1O`, for which, in data set [29], the logP was determined as 0.28.

In [30], `O=[N+]([O-])c1nccn1[C@@H]1O[C@H](CO)[C@@H](O)[C@H]1O` had a log partition coefficient (logP) of -1.15.

Take `O=Nc1c(Br)cc2ccccc2c1O`: in data set [31], the logD was 2.93.

With `ClC1=C(Cl)C2(Cl)C3C(Cl)C=CC3C1(Cl)C2(Cl)Cl` (stereo unspecified), in [32], the logP was 5.58.

In data set [33], `CCOP(=O)(OCC)C1(C)CCC=[N+]1[O-]` (stereo unspecified) registered a logP of -1.22.

As for `CNC(=O)ON=Cc1ccc(Cl)c(Cl)c1`, the logP in data set [34] came out at 2.89.

`O=Nc1c(O)ccc2ccccc12` had a logD in data set [35] of 2.28.

Regarding `CC(C)c1cc([N+](=O)[O-])cc([N+](=O)[O-])c1O`, in data set [36], the logP was determined as 3.1.

Take `CNC(=S)NCCSCc1c[nH]cn1`: the logD in data set [37] amounted to 0.16.

Turning to `O=C(O)c1ccccc1NCCO`, in [38], the logD was 1.16.

In data set [39], `Nc1nc(=O)n([C@H]2C[C@H](O)[C@@H](CO)O2)cc1I` came in with a logD of -0.94.

For the compound `O=C(O)CCc1ccccc1I`, the logD in [40] is 2.47.

In [41], `CC(=O)OCCn1c([N+](=O)[O-])cnc1C` registered a logD of 0.3.

In data set [42], `CCCN(C(C)=O)C(C)C` showed a logP of 1.48.

Consider `CCCCC1C(=O)NC(=O)N(C)C1=O` (stereo unspecified), for which the logP in [43] stood at 1.1.

Take `O=C1NC(=S)NC(=O)C12CCCCC2`: in data set [44], the logD turned out to be 1.78.

`CCCC(=O)n1ncc2c(=O)[nH]cnc21` registered a logP in [45] of 0.85.
